Test system: 786-0 complex spheroids with HUVEC/MSC, growth % test/control
Test: Anticancer human tumor 786-0 cell line growth inhibition [AhR];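 note: compound exposure lasted seven days before the read-out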
Settings: for IC50: curve of first compound; for viability, T/C: stronger effect = lower value
Summary of the method: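 Spheroids combined tumor cells with HUVEC endothelial cells and human MSCs as stroma. AhR antagonists were paired with standard or investigational drugs, each dosed in half-log steps down from near clinical Cmax, or from 10 microM where Cmax was unknown.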

SMILES: Cn1ncnc1C1c2n[nH]c(=O)c3cc(F)cc(c23)NC1c1ccc(F)cc1 (stereo not given) + Cc1cncc(-c2nc(NCCc3c[nH]c4ccccc34)c3ncn(C(C)C)c3n2)c1
- IC50 (second compound 0.1 µM): > 100 nM
- IC50 (second compound 0.316 µM): > 100 nM
- IC50 (second compound 1 µM): > 100 nM
- IC50 (second compound 3.16 µM): > 100 nM
- IC50 (second compound 10 µM): < 0.316 nM
- viability, T/C (second compound 0.1 µM, first compound 0.000316 µM): 122%
- viability, T/C (second compound 0.1 µM, first compound 0.001 µM): 120%
- viability, T/C (second compound 0.1 µM, first compound 0.00316 µM): 120%
- viability, T/C (second compound 0.1 µM, first compound 0.01 µM): 117%
- viability, T/C (second compound 0.1 µM, first compound 0.0316 µM): 120%
- viability, T/C (second compound 0.1 µM, first compound 0.1 µM): 115%
- viability, T/C (second compound 0.316 µM, first compound 0.000316 µM): 117%
- viability, T/C (second compound 0.316 µM, first compound 0.001 µM): 119%
- viability, T/C (second compound 0.316 µM, first compound 0.00316 µM): 110%
- viability, T/C (second compound 0.316 µM, first compound 0.01 µM): 116%
- viability, T/C (second compound 0.316 µM, first compound 0.0316 µM): 111%
- viability, T/C (second compound 0.316 µM, first compound 0.1 µM): 116%
- viability, T/C (second compound 1 µM, first compound 0.000316 µM): 112%
- viability, T/C (second compound 1 µM, first compound 0.001 µM): 111%
- viability, T/C (second compound 1 µM, first compound 0.00316 µM): 118%
- viability, T/C (second compound 1 µM, first compound 0.01 µM): 99.7%
- viability, T/C (second compound 1 µM, first compound 0.0316 µM): 105%
- viability, T/C (second compound 1 µM, first compound 0.1 µM): 119%
- viability, T/C (second compound 3.16 µM, first compound 0.000316 µM): 76.6%
- viability, T/C (second compound 3.16 µM, first compound 0.001 µM): 77.5%
- viability, T/C (second compound 3.16 µM, first compound 0.00316 µM): 78.7%
- viability, T/C (second compound 3.16 µM, first compound 0.01 µM): 75.8%
- viability, T/C (second compound 3.16 µM, first compound 0.0316 µM): 72.8%
- viability, T/C (second compound 3.16 µM, first compound 0.1 µM): 80.4%
- viability, T/C (second compound 10 µM, first compound 0.000316 µM): 19.2%
- viability, T/C (second compound 10 µM, first compound 0.001 µM): 19.2%
- viability, T/C (second compound 10 µM, first compound 0.00316 µM): 18.9%
- viability, T/C (second compound 10 µM, first compound 0.01 µM): 17.7%
- viability, T/C (second compound 10 µM, first compound 0.0316 µM): 17.4%
- viability, T/C (second compound 10 µM, first compound 0.1 µM): 21.4%

SMILES: O=C(C=Cn1cnc(-c2cc(C(F)(F)F)cc(C(F)(F)F)c2)n1)NNc1cnccn1 + Cc1ccccc1N=Nc1ccc(NC(=O)c2ccnn2C)c(C)c1
- IC50 (second compound 0.1 µM): 542 nM
- IC50 (second compound 0.316 µM): 520 nM
- IC50 (second compound 1 µM): 470 nM
- IC50 (second compound 3.16 µM): 566 nM
- IC50 (second compound 10 µM): 424 nM
- viability, T/C (second compound 0.1 µM, first compound 0.00949 µM): 103%
- viability, T/C (second compound 0.1 µM, first compound 0.03 µM): 108%
- viability, T/C (second compound 0.1 µM, first compound 0.0949 µM): 104%
- viability, T/C (second compound 0.1 µM, first compound 0.3 µM): 59.5%
- viability, T/C (second compound 0.1 µM, first compound 0.949 µM): 41.4%
- viability, T/C (second compound 0.1 µM, first compound 3 µM): 15.4%
- viability, T/C (second compound 0.316 µM, first compound 0.00949 µM): 109%
- viability, T/C (second compound 0.316 µM, first compound 0.03 µM): 105%
- viability, T/C (second compound 0.316 µM, first compound 0.0949 µM): 115%
- viability, T/C (second compound 0.316 µM, first compound 0.3 µM): 64.7%
- viability, T/C (second compound 0.316 µM, first compound 0.949 µM): 38%
- viability, T/C (second compound 0.316 µM, first compound 3 µM): 17.3%
- viability, T/C (second compound 1 µM, first compound 0.00949 µM): 113%
- viability, T/C (second compound 1 µM, first compound 0.03 µM): 100%
- viability, T/C (second compound 1 µM, first compound 0.0949 µM): 104%
- viability, T/C (second compound 1 µM, first compound 0.3 µM): 55.8%
- viability, T/C (second compound 1 µM, first compound 0.949 µM): 38%
- viability, T/C (second compound 1 µM, first compound 3 µM): 16.4%
- viability, T/C (second compound 3.16 µM, first compound 0.00949 µM): 91.6%
- viability, T/C (second compound 3.16 µM, first compound 0.03 µM): 92.7%
- viability, T/C (second compound 3.16 µM, first compound 0.0949 µM): 101%
- viability, T/C (second compound 3.16 µM, first compound 0.3 µM): 63.7%
- viability, T/C (second compound 3.16 µM, first compound 0.949 µM): 38.6%
- viability, T/C (second compound 3.16 µM, first compound 3 µM): 18.2%
- viability, T/C (second compound 10 µM, first compound 0.00949 µM): 88.4%
- viability, T/C (second compound 10 µM, first compound 0.03 µM): 84.8%
- viability, T/C (second compound 10 µM, first compound 0.0949 µM): 74.5%
- viability, T/C (second compound 10 µM, first compound 0.3 µM): 56.4%
- viability, T/C (second compound 10 µM, first compound 0.949 µM): 34.8%
- viability, T/C (second compound 10 µM, first compound 3 µM): 17.3%

From PubChem BioAssay AID1919003 (Molecular Pharmacology Branch, DTP, NCI, 2023)
